{
  "source": "patent US4933157A",
  "about": "“Radioiodinated arylaliphatic ether analogues of cholesterol” (The University of Michigan, priority 1988, dated 1990)",
  "key": {"[1]": {"test": "Polyacrylamide gel electrophoresis of rat plasma (plasma level studies)", "type": "in vivo, female Sprague Dawley rats"}, "[2]": {"test": "Tissue distribution of radioactivity following IV administration of radioiodinated cholesteryl ethers to female rats", "type": "in vivo, female Sprague Dawley rats", "experimental": "(§1) The labelled compounds ([…] ^125 I) were administered intravenously in a 2% Tween-20-saline vehicle. At various times following administration, the animals were sacrificed, and selected tissue samples were removed. The tissue samples were weighed and placed in cellulose acetate capsules. The radioactivity was then counted (85%) efficiency using a well scintillation counter (Searle 1185). The results from selected tissue samples are shown below in Tables 1 and 2. The tissue distribution of the selected cholesteryl ether is expressed as percent Kg dose per g of tissue after 30 minutes (Table 1) and after 24 hours (Table 2)."}, "[3]": {"experimental": "Female Sprague Dawley rats were injected with a radio-iodinated arylaliphatic cholesteryl ether analogue (^125 I) solubilized in a suitable transport agent, such as 2% Tween 20-saline. After a predetermined time period, blood samples were drawn from the rats. The plasma was separated from the red blood cells and mixed with a suitable dye (Sudan Black or Sudan Blue). The plasma samples were then subjected to polyacrylamide gel electrophoresis to separate the various fractions. The radioactivity of the various fractions were measured with a gamma counter. […] The data is expressed as a percent of total radioactivity in the gel.\nGuinea pigs have a greater concentration of low density lipoproteins in their blood plasma than rats."}, "[4]": {"test": "Tissue distribution of radioactivity following IV administration to male guinea pigs", "type": "in vivo, male Hartley guinea pigs", "experimental": "as §1"}, "[5]": {"conditions": "in vivo; cited from earlier work"}},
  "note": "Where two headings read alike, the source gives them in different places.",
  "data": [
    {"smiles": "CC(C)CCC[C@@H](C)[C@H]1CC[C@H]2[C@@H]3CC=C4C[C@@H](OCCCCCCCCCCCCc5cccc([125I])c5)CC[C@]4(C)[C@H]3CC[C@]12C", "note": "[m-Iodophenyldodecyl, 12-(m-iodophenyl)dodecyl cholesteryl ether]", "values": [
      {"measurement": "Gel fraction: Albumin", "setting": "[1]; 30 minutes", "result": "1.1 ± 0.2 % OF TOTAL RADIOACTIVITY IN GEL"},
      {"measurement": "Gel fraction: Below Alb", "setting": "[1]; 30 minutes", "result": "0.5 ± 0.1 % OF TOTAL RADIOACTIVITY IN GEL"},
      {"measurement": "Gel fraction: HDL Band (high density lipoproteins)", "setting": "[1]; 30 minutes", "result": "45.7 ± 3.2 % OF TOTAL RADIOACTIVITY IN GEL"},
      {"measurement": "Gel fraction: LDL Band (low density lipoproteins)", "setting": "[1]; 30 minutes", "result": "31.2 ± 4.0 % OF TOTAL RADIOACTIVITY IN GEL"},
      {"measurement": "Gel fraction: Stacking Gel", "setting": "[1]; 30 minutes", "result": "21.6 ± 5.8 % OF TOTAL RADIOACTIVITY IN GEL"},
      {"measurement": "Gel fraction: Albumin", "setting": "[1]; 24 hours", "result": "3.4 ± 0.7 % OF TOTAL RADIOACTIVITY IN GEL"},
      {"measurement": "Gel fraction: Below Alb", "setting": "[1]; 24 hours", "result": "4.9 ± 1.3 % OF TOTAL RADIOACTIVITY IN GEL"},
      {"measurement": "Gel fraction: HDL Band", "setting": "[1]; 24 hours", "result": "66.2 ± 2.6 % OF TOTAL RADIOACTIVITY IN GEL"},
      {"measurement": "Gel fraction: LDL Band", "setting": "[1]; 24 hours", "result": "14.0 ± 1.0 % OF TOTAL RADIOACTIVITY IN GEL"},
      {"measurement": "Gel fraction: Stacking Gel", "setting": "[1]; 24 hours", "result": "11.6 ± 1.3 % OF TOTAL RADIOACTIVITY IN GEL"},
      {"measurement": "Tissue distribution of radioactivity: Adrenal", "setting": "[2]; 30 minutes", "result": "1.307 ± 0.177", "unit": "% KG DOSE/G OF TISSUE"},
      {"measurement": "Tissue distribution of radioactivity: Blood", "setting": "[2]; 30 minutes", "result": "1.250 ± 0.067", "unit": "% KG DOSE/G OF TISSUE"},
      {"measurement": "Tissue distribution of radioactivity: Liver", "setting": "[2]; 30 minutes", "result": "0.829 ± 0.121", "unit": "% KG DOSE/G OF TISSUE"},
      {"measurement": "Tissue distribution of radioactivity: Ovary", "setting": "[2]; 30 minutes", "result": "0.936 ± 0.136", "unit": "% KG DOSE/G OF TISSUE"},
      {"measurement": "Tissue distribution of radioactivity: Thyroid", "setting": "[2]; 30 minutes", "result": "0.486 ± 0.085", "unit": "% KG DOSE/G OF TISSUE"},
      {"measurement": "Tissue distribution of radioactivity: Adrenal", "setting": "[2]; 24 hours", "result": "3.063 ± 0.305", "unit": "% KG DOSE/G OF TISSUE"},
      {"measurement": "Tissue distribution of radioactivity: Blood", "setting": "[2]; 24 hours", "result": "0.085 ± 0.002", "unit": "% KG DOSE/G OF TISSUE"},
      {"measurement": "Tissue distribution of radioactivity: Liver", "setting": "[2]; 24 hours", "result": "1.779 ± 0.247", "unit": "% KG DOSE/G OF TISSUE"},
      {"measurement": "Tissue distribution of radioactivity: Ovary", "setting": "[2]; 24 hours", "result": "4.528 ± 0.816", "unit": "% KG DOSE/G OF TISSUE"},
      {"measurement": "Tissue distribution of radioactivity: Thyroid", "setting": "[2]; 24 hours", "result": "6.047 ± 0.760", "unit": "% KG DOSE/G OF TISSUE"}
    ]},
    {"smiles": "CC(C)CCC[C@@H](C)[C@H]1CC[C@H]2[C@@H]3CC=C4C[C@@H](OCc5cccc([125I])c5)CC[C@]4(C)[C@H]3CC[C@]12C", "note": "[m-Iodobenzyl, m-iodobenzyl cholesteryl ether]", "values": [
      {"measurement": "Gel fraction: LDL Band", "setting": "[3]; guinea pig plasma, IV, 24 hr", "result": "72.2 ± 2.0 % OF TOTAL RADIOACTIVITY IN GEL"},
      {"measurement": "dose associated with the low density lipoproteins", "setting": "[3]; guinea pig, in vivo", "result": "greater than 70 % of the dose"},
      {"measurement": "Gel fraction: Albumin", "setting": "[1]; 30 minutes", "result": "0.3 ± 0.1 % OF TOTAL RADIOACTIVITY IN GEL"},
      {"measurement": "Gel fraction: Below Alb", "setting": "[1]; 30 minutes", "result": "0.0 ± 0.0 % OF TOTAL RADIOACTIVITY IN GEL"},
      {"measurement": "Gel fraction: HDL Band (high density lipoproteins)", "setting": "[1]; 30 minutes", "result": "53.3 ± 2.2 % OF TOTAL RADIOACTIVITY IN GEL"},
      {"measurement": "Gel fraction: LDL Band (low density lipoproteins)", "setting": "[1]; 30 minutes", "result": "41.0 ± 3.5 % OF TOTAL RADIOACTIVITY IN GEL"},
      {"measurement": "Gel fraction: Stacking Gel", "setting": "[1]; 30 minutes", "result": "5.4 ± 2.5 % OF TOTAL RADIOACTIVITY IN GEL"},
      {"measurement": "Gel fraction: Albumin", "setting": "[1]; 24 hours", "result": "1.1 ± 0.2 % OF TOTAL RADIOACTIVITY IN GEL"},
      {"measurement": "Gel fraction: Below Alb", "setting": "[1]; 24 hours", "result": "0.5 ± 0.1 % OF TOTAL RADIOACTIVITY IN GEL"},
      {"measurement": "Gel fraction: HDL Band", "setting": "[1]; 24 hours", "result": "45.7 ± 3.2 % OF TOTAL RADIOACTIVITY IN GEL"},
      {"measurement": "Gel fraction: Stacking Gel", "setting": "[1]; 24 hours", "result": "21.6 ± 5.8 % OF TOTAL RADIOACTIVITY IN GEL"},
      {"measurement": "Tissue distribution of radioactivity: Adrenal", "setting": "[4]; 30 min", "result": "0.360 ± 0.019", "unit": "% KG DOSE/G OF TISSUE"},
      {"measurement": "Tissue distribution of radioactivity: Blood", "setting": "[4]; 30 min", "result": "0.799 ± 0.041", "unit": "% KG DOSE/G OF TISSUE"},
      {"measurement": "Tissue distribution of radioactivity: Liver", "setting": "[4]; 30 min", "result": "0.643 ± 0.044", "unit": "% KG DOSE/G OF TISSUE"},
      {"measurement": "Tissue distribution of radioactivity: Testes", "setting": "[4]; 30 min", "result": "0.025 ± 0.002", "unit": "% KG DOSE/G OF TISSUE"},
      {"measurement": "Tissue distribution of radioactivity: Thyroid", "setting": "[4]; 30 min", "result": "0.039 ± 0.002", "unit": "% KG DOSE/G OF TISSUE"},
      {"measurement": "Tissue distribution of radioactivity: Adrenal", "setting": "[4]; 24 hr", "result": "7.861 ± 0.656", "unit": "% KG DOSE/G OF TISSUE"},
      {"measurement": "Tissue distribution of radioactivity: Blood", "setting": "[4]; 24 hr", "result": "0.158 ± 0.020", "unit": "% KG DOSE/G OF TISSUE"},
      {"measurement": "Tissue distribution of radioactivity: Liver", "setting": "[4]; 24 hr", "result": "2.023 ± 0.147", "unit": "% KG DOSE/G OF TISSUE"},
      {"measurement": "Tissue distribution of radioactivity: Testes", "setting": "[4]; 24 hr", "result": "0.043 ± 0.010", "unit": "% KG DOSE/G OF TISSUE"},
      {"measurement": "Tissue distribution of radioactivity: Thyroid", "setting": "[4]; 24 hr", "result": "1.546 ± 0.279", "unit": "% KG DOSE/G OF TISSUE"},
      {"measurement": "Tissue distribution of radioactivity: Adrenal", "setting": "[2]; 30 minutes", "result": "1.347 ± 0.289", "unit": "% KG DOSE/G OF TISSUE"},
      {"measurement": "Tissue distribution of radioactivity: Blood", "setting": "[2]; 30 minutes", "result": "0.985 ± 0.127", "unit": "% KG DOSE/G OF TISSUE"},
      {"measurement": "Tissue distribution of radioactivity: Liver", "setting": "[2]; 30 minutes", "result": "1.414 ± 0.176", "unit": "% KG DOSE/G OF TISSUE"},
      {"measurement": "Tissue distribution of radioactivity: Ovary", "setting": "[2]; 30 minutes", "result": "0.635 ± 0.036", "unit": "% KG DOSE/G OF TISSUE"},
      {"measurement": "Tissue distribution of radioactivity: Thyroid", "setting": "[2]; 30 minutes", "result": "0.133 ± 0.018", "unit": "% KG DOSE/G OF TISSUE"},
      {"measurement": "Tissue distribution of radioactivity: Adrenal", "setting": "[2]; 24 hours", "result": "3.755 ± 0.362", "unit": "% KG DOSE/G OF TISSUE"},
      {"measurement": "Tissue distribution of radioactivity: Blood", "setting": "[2]; 24 hours", "result": "0.070 ± 0.006", "unit": "% KG DOSE/G OF TISSUE"},
      {"measurement": "Tissue distribution of radioactivity: Liver", "setting": "[2]; 24 hours", "result": "2.607 ± 0.072", "unit": "% KG DOSE/G OF TISSUE"},
      {"measurement": "Tissue distribution of radioactivity: Ovary", "setting": "[2]; 24 hours", "result": "1.924 ± 0.301", "unit": "% KG DOSE/G OF TISSUE"},
      {"measurement": "Tissue distribution of radioactivity: Thyroid", "setting": "[2]; 24 hours", "result": "1.307 ± 0.150", "unit": "% KG DOSE/G OF TISSUE"}
    ]},
    {"smiles": "CC(C)CCC[C@@H](C)[C@H]1CC[C@H]2[C@@H]3C[C@@H](C[131I])C4=C(CC[C@H](O)C4)[C@H]3CC[C@]12C", "note": "[NP-59, 6-b-iodomethyl-19-norcholest-5[10]en-3b-ol]", "values": [
      {"measurement": "metabolic loss of iodine and accumulation in the thyroid", "setting": "[5]", "result": "subject to metabolic loss of iodine and resulting accumulation of this iodine in the thyroid"},
      {"measurement": "uptake into the adrenal glands", "setting": "[5]", "result": "extremely slow"}
    ]}
  ]
}
